This note sets out measurements from patent publication US20250221936A1, “ENGINEERED HEMICHANNELS, ENGINEERED VESICLES, AND USES THEREOF” (VIRGINIA TECH INTELLECTUAL PROPERTIES, INC., priority 2018, published 2025).

“Also recorded” adds a separate entry of the source.

In one assay the test system is adult mouse hearts. Briefly: Langendorff ischemia-reperfusion (I/R) injury, LV contractility. The conditions noted are these: for recovery of LV contractile performance during reperfusion: pre-ischemic 20-minute peptide infusion, 20 min ischemia, 40 min reperfusion. How it is done: Male, 3-month-old, body weight 25±5 g C57BL/6 mice were used for this study and obtained from Charles River. Animals were randomly assigned to experimental groups and Left ventricular (LV) function was measured and myocardial ischemia-reperfusion injury (I/R) was induced as previously described^23. Briefly, 15 minutes after the injection of heparin at a dose of 200U/10 g body weight, the mouse was anesthetized by inhalation of isoflurane vapor and subjected to cervical dislocation upon the cessation of respiration. Thoracotomy was immediately performed and the heart excised. The heart was arrested in ice-cold Krebs-Henseleit (KH) buffer (in mM: 25 NaHCO3, 0.5 EDTA, 5.3 KCl, 1.2 MgSO4, 0.5 pyruvate, 118 NaCl, 10 glucose, 2.5 CaCl2). The aorta was isolated and cannulated in a Langendorff perfusion system. The heart was then perfused at a constant pressure of 75 mmHg with KH buffer, which was continually bubbled with 5% CO2/95% O2 at 37° C. Effluent from the Thebesian veins was drained by a thin polyethylene tube (PE-10) pierced through the apex of the LV. A water-filled balloon made of polyvinylchloride film was inserted in the LV and connected to a blood pressure transducer (Harvard Apparatus, 733866, MA). After a 30-minute stabilization period, a balloon volume (BV) generating an LV end-diastolic-pressure (EDP) of 0 mmHg, was determined for the heart. The BV was then increased stepwise up through 1, 2, 5, 8, 10, 12, 15, 18, 20, 25, 30 μl increments of 1-5 μl and contractile performance were recorded for 10 seconds at each step. The indexes of cardiac function were amplified by a Transducer Amplifier Module (Harvard Apparatus, 730065, MA). Data was recorded and analyzed using PowerLab 4/35 (ADInstruments, PL3504, CO) and LabChart V7 (ADInstruments, CO). The BV was then adjusted to set EDP at about 8-10 mmHg and held constant during the ensuing steps of the protocol. Baseline function (determined by EDP at about 8-10 mmHg) was recorded for 5 minutes. The perfused beating heart were then treated with freshly prepared peptide stocks (0.2 mM), which were infused using syringe pump (Kent Sci, CT) into the perfusion buffer in a mixing chamber above the heart at 5% of coronary flow rate, to deliver final concentrations of 10-50 μM or equivalent vehicle for 20 minutes. At the end of the peptide infusion period hearts were subjected to global, no-flow normothermic ischemia by turning off the perfusion flow for 20 min, followed by a reperfusion phase for 40 min. BV was retaken through the stepwise sequence of 1-5 μl increments between 1 and 30 μl, with contractile performance again being recorded for 10 seconds at each step. Cardiac LV function was recorded throughout the procedure. In the case of post-ischemic treatment with alpha CT11 peptide, peptide infusion was begun at the initiation of the reperfusion phase, continued for 20 minutes and then contractile function by BV increments was taken as per the other hearts. A set of hearts were freeze-clamped immediately after peptide infusion for Western blotting. The protocol is illustrated in FIG. 9.

The next assay concerns the target T1, ZO-1 PDZ2 (Homo sapiens, UniProt Q07157).
T1 construct: the second of the three PDZ (PDZ2) domains of ZO-1; made in house; host or cells: E. coli BL21
T1 sequence (Q07157 186-264 limits assumed): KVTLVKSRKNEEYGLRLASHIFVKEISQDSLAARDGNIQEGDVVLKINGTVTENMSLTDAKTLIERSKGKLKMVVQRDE
Put plainly: EDC cross-linking to GST fusion ZO-1 PDZ domains. Format: binding. The settings on record: 5, 25 and 50 μM. How it is done:
To characterize the interaction between the Cx43 CT substrate and peptides, the in vitro kinase assay was performed as above with modification and the constituents then subjected to a cross-linking reaction. The assay buffer used was 20 mM 3-(N-morpholino) propanesulfonic acid (MOPS), pH 7.2. All other reagents present in the kinase reaction were maintained as described above. The reaction was allowed to proceed at 37° C. for 15 minutes. Afterwards, the carbodiimide crosslinker 1-Ethyl-3-(3-dimethylaminopropyl) carbodiimide HCl (EDC) (Thermo, 22980) was added to each solution for a final concentration of 20 mM. The solution was allowed to cross-link for one hour at room temperature. The reaction was stopped by the addition of 4×LDS loading buffer, boiled for 5 minutes and subsequently separated by PAGE. The resulting gel was stained in Coomassie brilliant blue (Sigma, B0770) for two hours and destained in a solution of 4% methanol 7% acetic acid overnight. Gel bands were subsequently excised for mass spectrometric analysis. For the direct interaction between protein and peptides, PBS, pH 7.5 was used as the coupling buffer. The protein (50 μg/ml) and peptide (25 μM) were allowed to react at room temperature for one hour before EDAC was added to the reaction mixture. The reaction was Western blotted for Cx43, GST or NeutroAvidin.

Consider “RQPKIWFPNRRKPWKK RPRPAALAI (RQPKIWFPNRRKPWKKRPRPAALAI) [M1 AALAI]”, for which the “recovery of LV contractile performance during reperfusion” value with adult mouse hearts was “no ability to improve recovery”.

On to RQPKIWFPNRRKPWKKRPRPDDLAI [M3 DDLAI], for which the “recovery of LV contractile performance during reperfusion” value in the assay with adult mouse hearts is on record as “no ability to improve recovery”.

Turning to RQPKIWFPNRRKPWKKRPRPDDLE [alpha CT1-I], the “interaction with ZO-1 PDZ2” value with ZO-1 PDZ2 is listed as “incompetent to interact; also recorded: abrogates interaction with ZO-1 PDZ2”. In addition, in the assay with adult mouse hearts, the “recovery of LV contractile performance during reperfusion” value was “significant functional recovery after I/R injury”.

Regarding RQPKIWFPNRRKPWKKRPRPDDLEI [alpha CT1], in the assay with ZO-1 PDZ2, the “interaction with ZO-1 PDZ2” value is listed as “selectivity of alpha CT1 for ZO-1 PDZ2”. Moreover, the “recovery of LV function” value in the assay on adult mouse hearts (20-minute peptide infusion at initiation of reperfusion (post-ischemic)) is “did not result in significant recovery of LV function”. For the same sequence, in the assay with adult mouse hearts (ex vivo I/R injury), the cardiac muscle loss entry was “reduce cardiac muscle loss by more than half”. For the same sequence, in the assay with adult mouse hearts, the “recovery of LV contractile performance during reperfusion” value is recorded as “notable recovery of LV function during reperfusion; also recorded: significant functional recovery after I/R injury”.
